Measurements taken from PubChem BioAssay (NCI).
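Exposure lasted 48 hours, with cells grown in 96-well plates and compounds tested at five concentrations. At the TGI there is no net growth.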

How the values were obtained:
Assay in all cases: NCI-60 cell line screen, 48 h
786-0 renal = tested on: 786-0 renal
A498 renal = tested on: A498 renal
A549 NSCLC = tested on: A549 NSCLC
ACHN renal = tested on: ACHN renal
BT-549 breast = tested on: BT-549 breast
CAKI-1 renal = tested on: CAKI-1 renal
CCRF-CEM leukemia = tested on: CCRF-CEM leukemia
COLO 205 colon = tested on: COLO 205 colon
DU-145 prostate = tested on: DU-145 prostate
EKVX NSCLC = tested on: EKVX NSCLC
HCC-2998 colon = tested on: HCC-2998 colon
HCT-116 colon = tested on: HCT-116 colon
HL-60(TB) leukemia = tested on: HL-60(TB) leukemia
HOP-62 NSCLC = tested on: HOP-62 NSCLC
HOP-92 NSCLC = tested on: HOP-92 NSCLC
HS 578T breast = tested on: HS 578T breast
HT29 colon = tested on: HT29 colon
IGROV1 ovarian = tested on: IGROV1 ovarian
K-562 leukemia = tested on: K-562 leukemia
KM12 colon = tested on: KM12 colon
M14 melanoma = tested on: M14 melanoma
MALME-3M melanoma = tested on: MALME-3M melanoma
MCF7 breast = tested on: MCF7 breast
MDA-MB-231 breast = tested on: MDA-MB-231 breast
MDA-MB-435 = tested on: MDA-MB-435
MDA-N = tested on: MDA-N
MOLT-4 leukemia = tested on: MOLT-4 leukemia
NCI-H226 lung = tested on: NCI-H226 lung
NCI-H23 lung = tested on: NCI-H23 lung
NCI-H460 lung = tested on: NCI-H460 lung
NCI-H522 lung = tested on: NCI-H522 lung
OVCAR-3 ovarian = tested on: OVCAR-3 ovarian
OVCAR-4 ovarian = tested on: OVCAR-4 ovarian
OVCAR-5 ovarian = tested on: OVCAR-5 ovarian
OVCAR-8 ovarian = tested on: OVCAR-8 ovarian
PC-3 prostate = tested on: PC-3 prostate
SF-268 CNS = tested on: SF-268 CNS
SF-295 CNS = tested on: SF-295 CNS
SF-539 CNS = tested on: SF-539 CNS
SK-MEL-28 melanoma = tested on: SK-MEL-28 melanoma
SK-MEL-5 melanoma = tested on: SK-MEL-5 melanoma
SK-OV-3 ovarian = tested on: SK-OV-3 ovarian
SN12C renal = tested on: SN12C renal
SNB-19 CNS = tested on: SNB-19 CNS
SNB-75 CNS = tested on: SNB-75 CNS
SR leukemia = tested on: SR leukemia
SW-620 colon = tested on: SW-620 colon
T-47D breast = tested on: T-47D breast
TK-10 renal = tested on: TK-10 renal
U251 CNS = tested on: U251 CNS
UACC-257 melanoma = tested on: UACC-257 melanoma
UACC-62 melanoma = tested on: UACC-62 melanoma
UO-31 renal = tested on: UO-31 renal
HCT-15 colon = tested on: HCT-15 colon
LOX IMVI melanoma = tested on: LOX IMVI melanoma
NCI/ADR-RES ovarian = tested on: NCI/ADR-RES ovarian
RPMI-8226 leukemia = tested on: RPMI-8226 leukemia
RXF 393 renal = tested on: RXF 393 renal
SK-MEL-2 melanoma = tested on: SK-MEL-2 melanoma

Measured: TGI

CC1C2CC(CC2N)C1(C)C (configuration not stated)
not listed: HCT-15 colon | LOX IMVI melanoma | NCI/ADR-RES ovarian | RPMI-8226 leukemia | RXF 393 renal | SK-MEL-2 melanoma
> 100 µM: all other assays above

CNC(=O)c1ccccc1[S+]1c2cccc3cccc(c23)C(=O)N1C (configuration not stated)
not listed: HCC-2998 colon | NCI-H460 lung | SK-OV-3 ovarian | SNB-75 CNS | SR leukemia
> 100 µM: all other assays above
